Laboratory results taken from patent EP3338775B1, “USE OF BUTYLIDENEPHTHALIDE” (Everfront Biotech Inc., priority 2015, dated 2017).

Key:
[1] = test system: NHOKs (normal human oral keratinocytes); test: MTT viability assay on normal human oral keratinocytes; type: cell-based; details: BP 0, 25, 50 and 100 µg/ml for 24 hours; Figure 2
Method: NHOKs (normal human oral keratinocytes) and HNC-TIC (head and neck cancer-derived tumor initiating cell)-like oral stem cells (i.e., ALDH1^+CD44^+-1 cell line or ALDH1^+CD44^+-2 cell line) were treated with different concentrations (0, 25, 50 and 100 µg/ml) of BP for 24 hours, and then, an MTT assay was utilized to analyzed the viabilities of NHOKs and HNC-TIC-like oral stem cells (i.e., ALDH1^+CD44^+-1 cell line and ALDH1^+CD44^+-2 cell line).

[2] = test system: CD133, Sox-2 and Oct4 proteins; test: Western blotting of stemness-maintenance markers in brain CSCs CD133+; type: cell-based; details: BP 0, 12.5, 25, 50, 62.5 and 75 µg/ml for 24 hours; Figures 4 and 5
Method: It has been known that CD44, CD133, Sox-2 (sex-determining region Y protein (SRY)-related high-mobility group box 2) and Oct4 (octamerbinding transcription factor 4) proteins all are stemness-maintenance markers of cancer stem cells and participate in the regulation of the self-renewal and differentiation of cancer stem cells. Brain CSCs ^CD133+ was treated with different concentrations (0, 12.5, 25, 50, 62.5 and 75 µg/ml) of BP for 24 hours, and then, proteins were extracted from the cells to conduct Western blotting to determine the expressions of CD133, Sox-2 and Oct4 proteins in the BP-treated brain CSCs ^CD133+. In addition, MiaPaCa-2 cell line (i.e., a cell line of pancreatic cancer cells) was treated with different concentrations (0, 12.5, 25, and 50 µg/ml) of BP for 24 hours, and then, proteins were extracted from the cells to conduct Western blotting to determine the expressions of Sox-2, CD133 and CD44 proteins in the BP-treated MiaPaCa-2 cells. […]

[3] = test system: Sox-2 and Oct4 proteins; test: Western blotting of stemness-maintenance markers in HNC-TIC-like oral stem cells; type: cell-based; details: BP 0, 12.5, 25 and 50 µg/ml for 24 hours; both cell lines; Figure 7
[4] = test system: MMP-2; test: Western blotting of MMP-2 protein in brain CSCs CD133+; type: cell-based; details: BP 0, 12.5, 25, 50, 62.5 and 75 µg/ml for 24 hours, Figure 10
Method: It has been known that at the start of the invasion of cancer stem cells, the extracellular matrix (ECM) is degraded by matrix metalloproteinases (MMPs). Wherein, the expressions of gelatinases, such as gelatinase-A (i.e., MMP-2) and gelatinase-B (i.e., MMP-9), are highly related to the histopathology of tumor metastasis. Brain CSCs ^CD133+ was treated with different concentrations (0, 12.5, 25, 50, 62.5 and 75 µg/ml) of BP for 24 hours, and then, proteins were extracted from the cells to conduct Western blotting to determine the expression of MMP-2 protein in the BP-treated brain CSCs ^CD133+.

[5] = test system: HNC-TIC-like oral stem cells stably transfected with GFP-tagged constructs; test: Tumor initiating activity animal experiment, subcutaneous GFP-tagged HNC-TIC-like oral stem cells in nude mice; type: in vivo, BALB/c nu/nu mice
Method: In this research, the effect of BP on inhibiting the tumor initiating activity of cancer stem cells was further investigated by animal experiments. First, 5-6 weeks old BALB/c nu/nu mice (weight 18-22 g) were bred under the same condition for 4 weeks. Then, HNC-TIC-like oral stem cells stably transfected with GFP-tagged constructs were injected (1×10^4 cells/0.1 mL/mouse) subcutaneously into the axilla of mice. After tumors reached 100 mm^3, mice were grouped into one control group and two experimental groups (three groups in total, n=3 per group). Then, one experimental group was injected daily with 100 mg/kg of BP for 6 days and another experimental group was injected daily with 200 mg/kg of BP for 6 days. The control group was injected daily with a vehicle (without BP) for 6 days. Ten days after the injection of BP or vehicle, the length and width were measured every 2 days (22 days in total), and then, the average tumor volume was calculated according to the following Formula 1. At the same time, the GFP signal (i.e., green fluorescence) of each group was detected and photographed by the IVIS Imaging system. The GFP intensity of each group was analyzed by Image-Pro Plus software. [length×width^2]/2((unit:mm)^3) [formula]

## CCCC=C1OC(=O)c2ccccc21 [BP, butylidenephthalide]
[1]
  viability of NHOKs: did not decrease
[2]
  expressions of CD133, Sox-2 and Oct4 proteins in brain CSCs ^CD133+: significantly decreased
[3]
  expressions of Sox-2 and Oct4 proteins in the HNC-TIC-like oral stem cells: significantly decreased
[4]
  expression of MMP-2 protein: significantly decreased
[5]; 100 mg/kg and 200 mg/kg groups, injected daily for 6 days, compared to control group, Figures 16C, 16D
  GFP intensity: significantly decreased
[5]; 100 mg/kg and 200 mg/kg groups, injected daily for 6 days, over a period of time after BP injection, Figure 16B
  tumor volume: decreased
[5]; 100 mg/kg or 200 mg/kg of BP injected daily for 6 days, Figure 16A
  body weight of mice: didn't change significantly
